Tests used:
prostate cancer = details: consumption of lycopene; Giovannucci et al. 1995; cited from earlier work
[1] = Pigment (lycopene) stability in freeze-dried tomato skins on 6-day storage at 30° C.; format: physicochemical; details: 6 days at 30° C., hexanes extract, spectrophotometric
Source text: Wet tomato skins from Siagra Co., Chengmai, Thailand (8.3 kg of the 50 lb batch used in Example 1) were freeze-dried for three days in a tray freeze-dryer (FTS Systems Inc., Stone Ridge N.Y.) to obtain freeze-dried tomato skins (2.08 kg, 24.3 percent moisture) from which five samples were taken.
The first sample of freeze-dried tomato skins was ground in a rotary meat grinder, which separated the seeds from the tomato skins. Further separation using sieves and air separation produced samples that were substantially only from the skins or the seeds of the tomatoes. The skin and seed samples were ground separately in a CYCLOTEC TECATOR™ mill (Fisher Scientific, Pittsburgh Pa.) fitted with a 0.5 mm screen, and found to contain 1328 milligrams of pigment per kilogram of tomato skins and 97 milligrams of pigment per kilogram of tomato seeds. The seeds thus contribute little to the total extractable pigment yet constitute a large portion of the total sample mass.
A second sample was left in flake form, and was dried for 6 days at 30° C. A third sample was ground in a WILEY™ mill (Fisher Scientific, Pittsburgh Pa.) fitted with a 2 mm screen and dried for 6 days at 30° C. A fourth sample was ground in a WILEY™ mill fitted with a 1 mm screen and dried for 6 days at 30° C. A fifth sample was ground in a CYCLOTEC™ mill fitted with a 0.5 mm screen and dried for 6 days at 30° C.
At the end of the treatment, all of the samples were extracted with hexanes, analyzed spectrophotometrically, and compared with the amount of lycopene present in the freeze-dried flakes before the 6-day heat treatment. The samples ground in the CYCLOTEC™ mill (<0.5 mm particles) and the WILEY™ mill (<1 mm and <2 mm particles) had more of the oxidized lycopene content than the non-ground (flake) sample: 36, 33, 36 and 25 percent pigment losses, respectively. However, none of the samples after 6 days had over 75 percent of the lycopene that was present before the treatment.

rat = details: oral; cited from earlier work

| SMILES | LD50 (rat) [mL/kg] | also measured |
| --- | --- | --- |
| CC(C)=CCC/C(C)=C/C=C/C(C)=C/C=C/C(C)=C/C=C/C=C(C)/C=C/C=C(C)/C=C/C=C(\C)CCC=C(C)C [lycopene, .psi.,.psi.-carotene] |  | risk of prostate cancer (prostate cancer): reduced risk of prostate cancer; pigment losses ([1]; CYCLOTEC mill, <0.5 mm particles): 36%; pigment losses ([1]; WILEY mill, <1 mm particles): 33%; pigment losses ([1]; WILEY mill, <2 mm particles): 36%; pigment losses ([1]; non-ground (flake) sample): 25% |
| ClC(Cl)Cl [Chloroform] | 2.18 |  |
| CC(C)=O [Acetone] | 10.7 |  |
| CC(O)CO (stereo not shown) [Propylene Glycol, 1,2-propanediol] | 25 |  |
| CCOC(C)=O [Ethyl Acetate] | 11.3 |  |
| c1ccncc1 [Pyridine] | 1.58 |  |
